From patent publication US20070270434A1, “SULFONYL-SUBSTITUTED BICYCLIC COMPOUNDS AS MODULATORS OF PPAR” (KALYPSYS, INC., priority 2006, published 2007)

What was measured:
Format in all cases: cell-based, murine and human
Settings in all cases: 20-24 hours
[1] = biological target: T1, PPAR-gamma ligand binding domain fused to GAL4 DNA binding domain (UniProt P37231); assay: Transient transfection transactivation assay in CV-1 cells, PPAR-gamma (GAL4 chimera, luciferase reporter)
T1 sequence (P37231 1-505): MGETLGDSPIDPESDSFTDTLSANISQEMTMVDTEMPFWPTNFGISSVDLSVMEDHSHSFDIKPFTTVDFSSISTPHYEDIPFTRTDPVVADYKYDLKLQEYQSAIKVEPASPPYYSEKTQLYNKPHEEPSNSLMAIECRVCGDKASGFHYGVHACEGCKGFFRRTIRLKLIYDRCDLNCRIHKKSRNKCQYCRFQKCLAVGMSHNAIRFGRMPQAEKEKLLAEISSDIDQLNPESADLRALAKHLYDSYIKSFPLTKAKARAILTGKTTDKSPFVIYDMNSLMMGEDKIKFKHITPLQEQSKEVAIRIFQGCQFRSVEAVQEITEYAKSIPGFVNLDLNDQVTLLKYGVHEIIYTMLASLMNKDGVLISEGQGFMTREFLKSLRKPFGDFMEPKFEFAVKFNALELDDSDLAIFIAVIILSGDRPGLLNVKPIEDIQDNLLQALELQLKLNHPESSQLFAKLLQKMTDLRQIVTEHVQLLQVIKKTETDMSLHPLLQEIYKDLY
Source text: (§1) Compounds may be screened for functional potency in transient transfection assays in CV-1 cells for their ability to activate the PPAR subtypes (transactivation assay). A previously established chimeric receptor system was utilized to allow comparison of the relative transcriptional activity of the receptor subtypes on the same synthetic response element and to prevent endogenous receptor activation from complicating the interpretation of results. See, for example, Lehmann, J. M.; Moore, L. B.; Smith-Oliver, T. A; Wilkinson, W. O.; Willson, T. M.; Kliewer, S. A., An antidiabetic thiazolidinedione is a high affinity ligand for peroxisome proliferator-activated receptor […], J. Biol. Chem., 1995, 270, 12953-6. The ligand binding domains for murine and human PPAR-alpha, PPAR-gamma, and PPAR-delta are each fused to the yeast transcription factor GAL4 DNA binding domain. CV-1 cells were transiently transfected with expression vectors for the respective PPAR chimera along with a reporter construct containing four or five copies of the GAL4 DNA binding site driving expression of luciferase. After 8-16 h, the cells are replated into multi-well assay plates and the media is exchanged to phenol-red free DME medium supplemented with 5% delipidated calf serum. 4 hours after replating, cells were treated with either compounds or 1% DMSO for 20-24 hours. Luciferase activity was then assayed with Britelite (Perkin Elmer) following the manufacturer's protocol and measured with either the Perkin Elmer Viewlux or Molecular Devices Acquest (see, for example, Kliewer, S. A., et. al. Cell 1995, 83, 813-819). Rosiglitazone is used as a positive control in the PPARγ assay. Wy-14643 and GW7647 are used as positive controls in the PPARα assay. GW501516 is used as the positive control in the PPARδ assay.

[2] = biological target: T2, PPAR-alpha ligand binding domain fused to GAL4 DNA binding domain (UniProt Q07869); assay: Transient transfection transactivation assay in CV-1 cells, PPAR-alpha (GAL4 chimera, luciferase reporter)
T2 sequence (Q07869 1-468): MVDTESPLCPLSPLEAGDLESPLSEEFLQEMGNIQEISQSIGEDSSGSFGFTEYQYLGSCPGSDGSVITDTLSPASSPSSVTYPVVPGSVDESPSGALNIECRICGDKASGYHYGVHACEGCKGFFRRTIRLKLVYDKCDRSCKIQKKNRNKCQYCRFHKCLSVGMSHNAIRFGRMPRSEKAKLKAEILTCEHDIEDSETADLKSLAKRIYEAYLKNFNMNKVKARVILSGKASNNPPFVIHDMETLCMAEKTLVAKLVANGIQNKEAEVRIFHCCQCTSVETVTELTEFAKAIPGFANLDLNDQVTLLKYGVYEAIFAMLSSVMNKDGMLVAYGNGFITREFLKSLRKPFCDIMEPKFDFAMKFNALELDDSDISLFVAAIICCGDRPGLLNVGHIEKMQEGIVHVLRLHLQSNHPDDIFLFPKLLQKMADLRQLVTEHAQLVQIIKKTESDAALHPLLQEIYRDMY
Source text: as §1

[3] = biological target: T3, PPAR-delta ligand binding domain fused to GAL4 DNA binding domain (UniProt Q03181); assay: Transient transfection transactivation assay in CV-1 cells, PPAR-delta (GAL4 chimera, luciferase reporter)
T3 sequence (Q03181 1-441): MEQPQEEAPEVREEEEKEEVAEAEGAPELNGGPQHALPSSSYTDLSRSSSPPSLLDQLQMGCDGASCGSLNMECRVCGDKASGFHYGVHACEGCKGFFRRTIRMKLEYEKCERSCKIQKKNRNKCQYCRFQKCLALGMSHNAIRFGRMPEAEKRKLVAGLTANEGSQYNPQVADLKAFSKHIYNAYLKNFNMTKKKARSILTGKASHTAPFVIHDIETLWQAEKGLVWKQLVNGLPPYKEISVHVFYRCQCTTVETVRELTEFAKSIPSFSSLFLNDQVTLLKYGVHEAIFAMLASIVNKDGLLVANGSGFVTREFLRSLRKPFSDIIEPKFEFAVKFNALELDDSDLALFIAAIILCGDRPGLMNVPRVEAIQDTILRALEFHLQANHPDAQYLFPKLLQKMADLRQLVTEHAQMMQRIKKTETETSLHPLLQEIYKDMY
Source text: as §1

Structure (SMILES) | EC50 [1] [µM] | EC50 [2] [µM] | EC50 [3] [µM]
C[C@@H]1CN(Cc2ccc(C(F)(F)F)c(F)c2)C[C@H](C)N1S(=O)(=O)c1cccc2c1CC(C(=O)O)C2 (stereo partly drawn) [Example 1, 4-(4-(3-Fluoro-4-(trifluoromethyl)benzyl)-cis-2,6-dimethylpiperazin-1-ylsulfonyl)-2,3-dihydro-1H-indene-2-carboxylic acid] | > 100 | > 100 | < 5
O=C(O)C1Cc2cccc(S(=O)(=O)N3CCN(S(=O)(=O)c4ccc(OC(F)(F)F)cc4)CC3)c2C1 (stereo not drawn) [Example 10, 4-(4-(4-(Trifluoromethoxy)phenylsulfonyl)piperazin-1-ylsulfonyl)-2,3-dihydro-1H-indene-2-carboxylic acid] | 5 to 100 | > 100 | 5 to 100
C[C@@H]1CN(C(=O)Cc2ccc(OC(F)(F)F)cc2)C[C@H](C)N1S(=O)(=O)c1cccc2c1CC(C(=O)O)C2 (stereo partly drawn) [Example 7, 4-(cis-2,6-Dimethyl-4-(2-(4-(trifluoromethoxy)phenyl)acetyl)piperazin-1-ylsulfonyl)-2,3-dihydro-1H-indene-2-carboxylic acid] | > 100 | > 100 | < 5
C[C@@H]1CN(Cc2ccc(OC(F)(F)F)c(F)c2)C[C@H](C)N1S(=O)(=O)c1cccc2c1CC(C(=O)O)C2 (stereo partly drawn) [Example 5] | 5 to 100 | 5 to 100 | < 5
C[C@@H]1CN(Cc2ccc(OC(F)(F)F)c(Cl)c2)C[C@H](C)N1S(=O)(=O)c1cccc2c1CC(C(=O)O)C2 (stereo partly drawn) [Example 4, 4-(4-(3-Chloro-4-(trifluoromethoxy)benzyl)-cis-2,6-dimethylpiperazin-1-ylsulfonyl)2,3-dihydro-1H-indene-2-carboxylic acid] | 5 to 100 | 5 to 100 | < 5
C[C@@H]1CN(Cc2cccc(OC(F)(F)F)c2)C[C@H](C)N1S(=O)(=O)c1cccc2c1CC(C(=O)O)C2 (stereo partly drawn) [Example 3, 4-[cis-2,6-Dimethyl-4-(3-(trifluoromethoxy)benzyl)piperazine-1-sulfonyl]-2,3-dihydro-1H-indene-2 carboxylic acid] | 5 to 100 | > 100 | < 5

Continued, values first:

EC50 [1] [µM] | EC50 [2] [µM] | EC50 [3] [µM] | Structure (SMILES)
> 100 | > 100 | < 5 | C[C@@H]1CN(CCc2ccc(C(F)(F)F)c(F)c2)C[C@H](C)N1S(=O)(=O)c1cccc2c1CC(C(=O)O)C2 (stereo partly drawn) [Example 26, 4-(4-(3-Fluoro-4-(trifluoromethyl)phenethyl)-(cis)-2,6-dimethylpiperazin-1-ylsulfonyl)-2,3-dihydro-1H-indene-2-carboxylic acid]
> 100 | > 100 | 5 to 100 | C[C@@H]1CN(C(=O)Cc2ccc(C(F)(F)F)cc2)C[C@H](C)N1S(=O)(=O)c1cccc2c1CC(C(=O)O)C2 (stereo partly drawn) [Example 13, 4-(cis-2,6-Dimethyl-4-(2-(4-(trifluoromethyl)phenyl)acetyl)piperazin-1-ylsulfonyl)-2,3-dihydro-1H-indene-2-carboxylic acid]
> 100 | > 100 | < 5 | C[C@@H]1CN(CCc2ccc(C(F)(F)F)cc2)C[C@H](C)N1S(=O)(=O)c1cccc2c1CC(C(=O)O)C2 (mixture of isomers) [Example 14A, 4-(cis-2,6-Dimethyl-4-(4-(trifluoromethyl)phenethyl)piperazin-1-ylsulfonyl)-2,3-dihydro-1H-indene-2-carboxylic acid]
> 100 | > 100 | < 5 | C[C@@H]1CN(CCc2ccc(Cl)c(Cl)c2)C[C@H](C)N1S(=O)(=O)c1cccc2c1CC(C(=O)O)C2 (stereo partly drawn) [Example 27]
5 to 100 | 5 to 100 | < 5 | O=C(O)C1Cc2cccc(S(=O)(=O)N3CCN(CCc4ccc(OC(F)(F)F)cc4)CC3)c2C1 (stereo not drawn) [Example 15, 4-(4-(4-(Trifluoromethoxy)phenethyl)piperazin-1-ylsulfonyl)-2,3-dihydro-1H-indene-2-carboxylic acid]
